# Data: patent US9630922B2, “3-spiro-7-hydroxamic acid tetralins as HDAC inhibitors” (Forma Therapeutics, Inc., priority 2015, dated 2017)
# Molecular target: T1, HDAC6 (Homo sapiens, UniProt Q9UBN7)
# T1 construct: Full length human recombinant HDAC6 protein was expressed in baculoviral system; made in house; host or cells: baculoviral system
# T1 sequence (Q9UBN7 1-1215): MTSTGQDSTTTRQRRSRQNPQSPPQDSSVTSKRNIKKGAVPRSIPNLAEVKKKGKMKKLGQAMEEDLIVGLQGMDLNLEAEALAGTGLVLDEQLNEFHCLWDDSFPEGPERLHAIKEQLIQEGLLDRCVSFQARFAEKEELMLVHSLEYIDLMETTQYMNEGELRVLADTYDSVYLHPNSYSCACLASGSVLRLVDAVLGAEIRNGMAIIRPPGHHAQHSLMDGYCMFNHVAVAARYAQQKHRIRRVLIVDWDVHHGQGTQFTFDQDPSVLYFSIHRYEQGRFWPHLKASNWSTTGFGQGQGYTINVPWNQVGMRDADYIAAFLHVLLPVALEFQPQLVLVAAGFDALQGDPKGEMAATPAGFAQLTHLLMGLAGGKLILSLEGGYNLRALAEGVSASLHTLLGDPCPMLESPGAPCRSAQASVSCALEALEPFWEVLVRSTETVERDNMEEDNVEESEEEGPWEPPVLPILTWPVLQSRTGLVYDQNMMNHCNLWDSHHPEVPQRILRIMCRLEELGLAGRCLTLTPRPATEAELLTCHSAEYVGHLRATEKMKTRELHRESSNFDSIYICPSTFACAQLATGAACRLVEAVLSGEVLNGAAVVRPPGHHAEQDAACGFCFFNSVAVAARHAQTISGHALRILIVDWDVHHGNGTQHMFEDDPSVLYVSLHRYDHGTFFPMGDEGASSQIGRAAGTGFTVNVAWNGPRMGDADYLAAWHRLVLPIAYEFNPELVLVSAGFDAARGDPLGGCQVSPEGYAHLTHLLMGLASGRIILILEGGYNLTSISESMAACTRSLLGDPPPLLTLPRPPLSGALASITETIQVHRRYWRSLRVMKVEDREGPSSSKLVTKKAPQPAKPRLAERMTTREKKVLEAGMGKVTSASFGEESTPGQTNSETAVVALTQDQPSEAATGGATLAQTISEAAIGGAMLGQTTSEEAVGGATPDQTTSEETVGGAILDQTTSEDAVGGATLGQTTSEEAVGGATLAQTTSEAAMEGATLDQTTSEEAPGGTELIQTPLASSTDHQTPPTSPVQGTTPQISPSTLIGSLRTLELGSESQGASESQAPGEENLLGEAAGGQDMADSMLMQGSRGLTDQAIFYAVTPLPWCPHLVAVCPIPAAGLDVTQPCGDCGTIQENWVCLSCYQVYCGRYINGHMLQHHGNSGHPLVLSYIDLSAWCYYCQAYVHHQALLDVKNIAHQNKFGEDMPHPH
# Assay: In vitro Histone Deacetylase Assay (enzymatic HDAC6 electrophoretic mobility shift assay)
# Assay type: biochemical
# Conditions: full length human recombinant HDAC6, 1 nM enzyme, 2 μM peptide substrate RHKK(Ac)-NH2, 25° C.; read-out: HDAC6 activity range
# In short: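 Full-length recombinant human HDAC6 (baculovirus-expressed, 1 nM) was incubated at 25 °C with 2 μM fluorescent RHKK(Ac)-NH2 peptide in HEPES pH 7.5, KCl, BSA, Triton X-100 and 1% DMSO, then SDS-quenched. Substrate and product were separated by microfluidic mobility shift, and IC50 came from 4-parameter fits of 12-point, 3-fold dilution curves.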
row,IC50,Structure (SMILES)
1,≤ 100 nM,"COc1cccc(CN2CC[C@@]3(CCc4cc(C(=O)NO)ccc4C3)C2=O)c1 [Compound I-77, (S)-N-hydroxy-1′-(3-methoxybenzyl)-2′-oxo-3,4-dihydro-1H-spiro[naphthalene-2,3′-pyrrolidine]-6-carboxamide]"
2,≤ 100 nM,"O=C(NO)c1ccc2c(c1)CC[C@@]1(CCN(Cc3cccc(F)c3)C1=O)C2 [Compound I-79, (S)-1′-(3-fluorobenzyl)-N-hydroxy-2′-oxo-3,4-dihydro-1H-spiro[naphthalene-2,3′-pyrrolidine]-6-carboxamide]"
3,≤ 100 nM,"O=C(NO)c1ccc2c(c1)CC[C@@]1(CCN(Cc3cccc(Cl)c3)C1=O)C2 [Compound I-81, (S)-1′-[(3-chlorophenyl)methyl]-N-hydroxy-2′-oxo-3,4-dihydro-1H-spiro[naphthalene-2,3′-pyrrolidine]-6-carboxamide]"
4,≤ 100 nM,"COc1ccc(N2CC[C@]3(CCc4cc(C(=O)NO)ccc4C3)C2=O)cc1F [Compound I-90, (R)-1′-(3-fluoro-4-methoxyphenyl)-N-hydroxy-2′-oxo-3,4-dihydro-1H-spiro[naphthalene-2,3′-pyrrolidine]-6-carboxamide]"
5,≤ 100 nM,"O=C(NO)c1ccc2c(c1)CC[C@]1(CCN(c3ccc4c(c3)OCO4)C1=O)C2 [Compound I-91, (R)-1′-(benzo[d][1,3]dioxol-5-yl)-N-hydroxy-2′-oxo-3,4-dihydro-1H-spiro[naphthalene-2,3′-pyrrolidine]-6-carboxamide]"
6,≤ 100 nM,"CSc1cccc(N2CC[C@]3(CCc4cc(C(=O)NO)ccc4C3)C2=O)c1 [Compound I-92, (R)-N-hydroxy-1′-(3-(methylthio)phenyl)-2′-oxo-3,4-dihydro-1H-spiro[naphthalene-2,3′-pyrrolidine]-6-carboxamide]"
7,≤ 100 nM,"CN(C)c1ccc(N2CC[C@]3(CCc4cc(C(=O)NO)ccc4C3)C2=O)cc1 [Compound I-93, (R)-1′-(4-(dimethylamino)phenyl)-N-hydroxy-2′-oxo-3,4-dihydro-1H-spiro[naphthalene-2,3′-pyrrolidine]-6-carboxamide]"
8,≤ 100 nM,"CC(C)c1ccc(N2CC[C@]3(CCc4cc(C(=O)NO)ccc4C3)C2=O)cn1 [Compound I-94, (R)-N-hydroxy-1′-(6-isopropylpyridin-3-yl)-2′-oxo-3,4-dihydro-1H-spiro[naphthalene-2,3′-pyrrolidine]-6-carboxamide]"
9,≤ 100 nM,"O=C(NO)c1ccc2c(c1)CC[C@]1(CCN(c3cnc4ccccc4c3)C1=O)C2 [Compound I-95, (R)-N-hydroxy-2′-oxo-1′-(quinolin-3-yl)-3,4-dihydro-1H-spiro[naphthalene-2,3′-pyrrolidine]-6-carboxamide]"
10,≤ 100 nM,"O=C(NO)c1ccc2c(c1)CC[C@]1(CCN(c3ccc4nccn4c3)C1=O)C2 [Compound I-99, (R)-N-hydroxy-1′-(imidazo[1,2-a]pyridin-6-yl)-2′-oxo-3,4-dihydro-1H-spiro[naphthalene-2,3′-pyrrolidine]-6-carboxamide]"
11,≤ 100 nM,"Cc1ccc(N2CC[C@@]3(CCc4cc(C(=O)NO)ccc4C3)C2=O)c(C)c1 [Compound I-100, (S)-1′-(2,4-dimethylphenyl)-N-hydroxy-2′-oxo-3,4-dihydro-1H-spiro[naphthalene-2,3′-pyrrolidine]-6-carboxamide]"

# The remaining lines, values behind:
row,Structure (SMILES),IC50
1,"O=C(NO)c1ccc2c(c1)CC[C@@]1(CCN(Cc3cc(Cl)ccc3Cl)C1=O)C2 [Compound I-74, (S)-1′-(2,5-dichlorobenzyl)-N-hydroxy-2′-oxo-3,4-dihydro-1H-spiro[naphthalene-2,3′-pyrrolidine]-6-carboxamide]",100 to 500 nM
2,"O=C(NO)c1ccc2c(c1)CC[C@@]1(CCN(Cc3c(Cl)cccc3Cl)C1=O)C2 [Compound I-75, (S)-1′-(2,6-dichlorobenzyl)-N-hydroxy-2′-oxo-3,4-dihydro-1H-spiro[naphthalene-2,3′-pyrrolidine]-6-carboxamide]",100 to 500 nM
3,"O=C(NO)c1ccc2c(c1)CC[C@@]1(CCN(Cc3ccccc3)C1=O)C2 [Compound I-76, (S)-1′-benzyl-N-hydroxy-2′-oxo-3,4-dihydro-1H-spiro[naphthalene-2,3′-pyrrolidine]-6-carboxamide]",≤ 100 nM
4,"O=C(NO)c1ccc2c(c1)CC[C@@]1(CCN(Cc3ccccn3)C1=O)C2 [Compound I-78, (S)-N-hydroxy-2′-oxo-1′-(pyridin-2-ylmethyl)-3,4-dihydro-1H-spiro[naphthalene-2,3′-pyrrolidine]-6-carboxamide]",≤ 100 nM
5,"O=C(NO)c1ccc2c(c1)CC[C@@]1(CCN(Cc3ccc(OC(F)(F)F)cc3)C1=O)C2 [Compound I-80, (S)-N-hydroxy-2′-oxo-1′-(4-(trifluoromethoxy)benzyl)-3,4-dihydro-1H-spiro[naphthalene-2,3′-pyrrolidine]-6-carboxamide]",100 to 500 nM
6,"O=C(NO)c1ccc2c(c1)CC[C@@]1(CCN(Cc3ccc(Cl)cc3)C1=O)C2 [Compound I-82, (S)-1′-(4-chlorobenzyl)-N-hydroxy-2′-oxo-3,4-dihydro-1H-spiro[naphthalene-2,3′-pyrrolidine]-6-carboxamide]",≤ 100 nM
7,"COc1ccc(CN2CC[C@@]3(CCc4cc(C(=O)NO)ccc4C3)C2=O)cc1 [Compound I-83, (S)-N-hydroxy-1′-(4-methoxybenzyl)-2′-oxo-3,4-dihydro-1H-spiro[naphthalene-2,3′-pyrrolidine]-6-carboxamide]",≤ 100 nM
8,"O=C(NO)c1ccc2c(c1)CC[C@@]1(CCN(Cc3ccccc3F)C1=O)C2 [Compound I-84, (S)-1′-(2-fluorobenzyl)-N-hydroxy-2′-oxo-3,4-dihydro-1H-spiro[naphthalene-2,3′-pyrrolidine]-6-carboxamide]",≤ 100 nM
9,"CC(C)(C)c1ccc(CN2CC[C@@]3(CCc4cc(C(=O)NO)ccc4C3)C2=O)cc1 [Compound I-85, (S)-1′-(4-(tert-butyl)benzyl)-N-hydroxy-2′-oxo-3,4-dihydro-1H-spiro[naphthalene-2,3′-pyrrolidine]-6-carboxamide]",100 to 500 nM
10,"O=C(NO)c1ccc2c(c1)CC[C@@]1(CCN(Cc3ccc4ccccc4c3)C1=O)C2 [Compound I-86, (S)-N-hydroxy-1′-(naphthalen-2-ylmethyl)-2′-oxo-3,4-dihydro-1H-spiro[naphthalene-2,3′-pyrrolidine]-6-carboxamide]",≤ 100 nM
11,"O=C(NO)c1ccc2c(c1)CC[C@@]1(CCN(Cc3ccccc3OC(F)F)C1=O)C2 [Compound I-87, (S)-1′-(2-(difluoromethoxy)benzyl)-N-hydroxy-2′-oxo-3,4-dihydro-1H-spiro[naphthalene-2,3′-pyrrolidine]-6-carboxamide]",≤ 100 nM
12,"CS(=O)(=O)c1ccc(CN2CC[C@]3(CCc4cc(C(=O)NO)ccc4C3)C2=O)cc1 [Compound I-88, (R)-N-hydroxy-1′-(4-(methylsulfonyl)benzyl)-2′-oxo-3,4-dihydro-1H-spiro[naphthalene-2,3′-pyrrolidine]-6-carboxamide]",≤ 100 nM
13,"O=C(NO)c1ccc2c(c1)CC[C@]1(CCN(c3cccc4ccccc34)C1=O)C2 [Compound I-89, (R)-N-hydroxy-1′-(naphthalen-1-yl)-2′-oxo-3,4-dihydro-1H-spiro[naphthalene-2,3′-pyrrolidine]-6-carboxamide]",≤ 100 nM
14,"O=C(NO)c1ccc2c(c1)CC[C@]1(CCN(c3cccc4c3OCC4)C1=O)C2 [Compound I-96, (R)-1′-(2,3-dihydrobenzofuran-7-yl)-N-hydroxy-2′-oxo-3,4-dihydro-1H-spiro[naphthalene-2,3′-pyrrolidine]-6-carboxamide]",≤ 100 nM
15,"CC(C)(C)Nc1cc(N2CC[C@]3(CCc4cc(C(=O)NO)ccc4C3)C2=O)ncn1 [Compound I-97, (R)-1′-(6-(tert-butylamino)pyrimidin-4-yl)-N-hydroxy-2′-oxo-3,4-dihydro-1H-spiro[naphthalene-2,3′-pyrrolidine]-6-carboxamide]",≤ 100 nM
16,"Cc1nn(C)cc1N1CC[C@]2(CCc3cc(C(=O)NO)ccc3C2)C1=O [Compound I-98, (R)-1′-(1,3-dimethyl-1H-pyrazol-4-yl)-N-hydroxy-2′-oxo-3,4-dihydro-1H-spiro[naphthalene-2,3′-pyrrolidine]-6-carboxamide]",≤ 100 nM
